Test results published in patent publication US10064865B2, “Composition comprising phosphodiesterase type 5 inhibitor for inhibiting apoptosis of nerve cells” (ARIBIO INC., priority 2012, dated 2018).

What was measured:
PARP = assay: Example 2 immunohistochemistry: PARP-immunoreactive cells; type: in vivo, Sprague-Dawley (SD) rats; conditions: for Numbers of neurons: PARP+: 1 mg/kg s.c. once a day for 14 days, 29 days after neuron apoptosis
Protocol: The induction of neuron apoptosis was carried out by damaging the right hemisphere of the brain of animals. Specifically, animals were anesthetized with 2 or 3% isoflurane in the mixture of 70% N2O and 28.5% O2, and were maintained with 1 to 1.5% isoflurane in the mixture of 70% N2O and 28.5% O2. After that the temporalis muscle was bisected and reflected through an incision made midway between the eye and the eardrum canal. The proximal MCA was exposed through a subtemporal craniectomy by microdental drills without removing the zygomatic arch and without transecting the facial nerve. […] Mortality was less than 5%. For sham control, all procedures were performed in the same way, with the exception of the occlusion of the MCA.
After deparaffinized of prepared […] histological paraffin sections, citrate buffer antigen (epitope) retrieval pretreatment were conducted as previously (Shi S R et al., J Histochem Cytochem. 41:1599-604(1993)). Briefly, pre-heat water bath with staining dish containing 10 mM citrate buffers (pH 6.0) until temperature reaches 95-100° C. Immerse slides in the staining dish and place the lid loosely on the staining dish. Incubate for 20 minutes and turn off the water bath. Place the staining dish at room temperature and allow the slides to cool for 20 minutes. After epitope retrievals, sections were immunostained using avidin-biotin complex (ABC) methods for caspase-3 and PARP. Endogenous peroxidase activity was blocked by incubated in methanol and 0.3% H2O2 for 30 minutes, and non-specific binding of immunoglobulin was blocked with normal horse serum blocking solution (Vector Lab., Burlingame, Calif., USA. Dilution 1:100) for 1 hr in humidity chamber. Primary antiserum were treated for overnight at 4° C. in humidity chamber, and then incubated with biotinylated universal secondary antibody (Vector Lab., Dilution 1:50) and ABC reagents (Vectastain Elite ABC Kit, Vector Lab., Dilution 1:50) for 1 hr at room temperature in humidity chamber. Finally, reacted with peroxidae substrate kit (Vector Lab.) for 3 min at room temperature. All sections were rinse in 0.01M PBS for 3 times, between steps. The neurons occupied by over 10% of immunoreactivities, the density, of each antiserum for caspase-3 and PARP were regarded as positive, and the mean numbers of caspase-3 and PARPimmunoreactive cells dispersed in the mm^2 of ipsilateral peri-infarct/defect cerebral cortex were counted using an automated image analysis process as establish methods (Lee et al., 2010; Song et al., 2012), respectively. The histopathologist was blinded to the group distribution when performing the analysis.
All data were expressed as mean±standard deviation (S.D.) of ten rats. Multiple comparison tests for different dose groups were conducted. Variance homogeneity was examined using the Levene test (Levene A, Clin Otalary, 1981; 6:145-51). […] Statistical analyses were conducted using SPSS for Windows (Release 14K, SPSS Inc., USA; Ludbrook, Clin Exp Pharmacol Physiol, 1997; 24:294-6). In addition, the percent changes as compared with neuron apoptosis control and mirodenafil treated rats were calculated to help the understanding of the efficacy of test substances as follow Equation 6 and 7. Percentage Changes as Compared with Sham Control (%)=[((Data of neuron apoptosis control−Data of sham control rat)/Data of sham control rats)×100] [EQUATION 6] Percentage Changes as Compared with neuron apoptosis Control (%)=[((Data of test material treated rats−Data of neuron apoptosis control rats)/Data of neuron apoptosis control rats)×100] [EQUATION 7]

[1] = Dissolution of test material in saline; type: physicochemical; conditions: mirodenafil 2HCl
Protocol: The mirodenafil (mirodenafil 2HCl; SK Chemical Life Science Business, KR) was used in this experiment. […] Mirodenafil was stored at 4° C. in a refrigerator to protect from light and humidity until used. Three different dosages, 0.5, 1 and 2 mg/kg of mirodenafil were directly dissolved in saline and subcutaneously administered in a volume of 1 ml/kg on the dorsal back skins, once a day for 28 days from 24 hrs after stabilization periods from operation. In saline and neuron apoptosis control rats, equal volumes of saline as vehicle were administered, instead of mirodenafil, respectively.
The mirodenafil (mirodenafil 2HCl; SK Chemical Life Science Business, KR) was used in this experiment. […] Mirodenafil was stored at 4° C. in a refrigerator to protect from light and humidity until used. Mirodenafil were directly dissolved in saline as 1 mg/ml concentrations, and subcutaneously administered in a volume of 1 ml/kg on the dorsal back skins from 24, 72 and 168 hrs after neuron apoptosis, once a day for 14 days, respectively. In saline and neuron apoptosis control rats, equal volumes of saline as vehicle were administered, instead of mirodenafil from 24 hrs after neuron apoptosis for 20 days, respectively.

SMILES: CCCOc1ccc(S(=O)(=O)N2CCN(CCO)CC2)cc1-c1nc2c(CCC)cn(CC)c2c(=O)[nH]1 [Mirodenafil, mirodenafil]
- numbers of PARP-immunoreactive neurons at 29 days, change as compared with neuron apoptosis control (PARP; 1 mg/kg from 24 hrs after surgery): −53.92%
- numbers of PARP-immunoreactive neurons at 29 days, change as compared with neuron apoptosis control (PARP; 1 mg/kg from 72 hrs after surgery): −39.72%
- numbers of PARP-immunoreactive neurons at 29 days, change as compared with neuron apoptosis control (PARP; 1 mg/kg from 168 hrs after surgery): −15.68%
- Numbers of neurons: PARP+ (PARP; start 24 hrs after operation): 36.14 ± 5.32^ab cells/mm^2 of cerebral cortex
- Numbers of neurons: PARP+ (PARP; start 72 hrs after operation): 47.28 ± 5.36^ab cells/mm^2 of cerebral cortex
- Numbers of neurons: PARP+ (PARP; start 168 hrs after operation): 66.13 ± 9.61^ac cells/mm^2 of cerebral cortex
- solubility in saline [1]: well dissolved in saline
